From ChEMBL document CHEMBL6096630, “Enhancing therapeutic efficacy in homologous recombination-proficient pancreatic cancer via the combination of PARP1-PROTAC and a BRD4 inhibitor” (Bioorg Med Chem, 2024) come the findings set out here.

SMILES strings stand for the structures. Calls of active or inactive are those of the source. No cut-off for these calls is given here.

In series [1] the test system is PANC-1. Kind of series: Induction of cell cycle arrest in human PANC-1 cells assessed as accumulation at S phase at 1.2 uM incubated for 24 hrs by PI staining based flow cytometry (reference value: 38.94 %). It is filed as functional. A general note: Flow cytometry measures light scatter and fluorescence of single cells or particles in a stream.
Series [2] deals with PANC-1. Kind of series: Induction of cell cycle arrest in human PANC-1 cells assessed as accumulation at G1 phase at 0.6 uM incubated for 24 hrs by PI staining based flow cytometry (reference value: 51.70 %). It is filed as functional.
For series [3], the target named is Bromodomain-containing protein 4 (Homo sapiens) (UniProt O60885). Kind of series: Inhibition of BRD4 in human PANC-1 cells at 2 uM incubated for 24 hrs in presence of JQ1 by immunofluorescence based analysis. It is filed as cell-based.
Series [4] in a line: Toxicity in BALB/c mouse xenografted with human PANC-1 cells assessed as pathological changes in heart at 40 mg/kg, ip for 4 weeks administered for 5 days consecutively and 2 days without treatment on every week in presence of JQ1 by H and E staining based analysis. Conditions: in vivo, 672 h. It is filed as organism-based. (In xenograft studies the graft and the host belong to different species.)

The subject of series [5] is PANC-1. Kind of series: Induction of cell cycle arrest in human PANC-1 cells assessed as accumulation at G1 phase at 2.5 uM incubated for 24 hrs by PI staining based flow cytometry (reference value: 51.70 %). It is filed as functional.
Series [6] in a line: Toxicity in BALB/c mouse xenografted with human PANC-1 cells assessed as pathological changes in kidney at 40 mg/kg, ip for 4 weeks administered for 5 days consecutively and 2 days without treatment on every week by H and E staining based analysis. It is filed as organism-based. Conditions: in vivo, 672 h.
In series [7] the target is Protein cereblon/Poly [ADP-ribose] polymerase 1 (Homo sapiens, UniProt P09874+Q96SW2). Kind of series: PROTAC activity at CRBN/PARP1 in human PANC-1 cells assessed as induction of PARP1 degradation incubated for 24 hrs by Western blot analysis. It is filed as cell-based.
Series [8] concerns PANC-1. Kind of series: Induction of apoptosis in human PANC-1 cells assessed as early apoptotic cells at 2 uM incubated for 48 hrs in presence of JQ1 by Annexin V-FITC/PI staining based flow cytometry (reference value: 1.41 %). It is filed as functional.
Series [9] has as its system PANC-1. Kind of series: Induction of apoptosis in human PANC-1 cells assessed as viable cells at 10 uM incubated for 48 hrs by Annexin V-FITC/PI staining based flow cytometry (reference value: 91.64 %). It is filed as functional. Conditions: read-out: Activity.
Series [10] deals with PANC-1. Kind of series: Antitumor activity against human PANC-1 cells xenografted in BALB/c mouse at 40 mg/kg, ip for 4 weeks administered for 5 days consecutively and 2 days without treatment on every week in presence of JQ1 relative to control. Conditions: PANC-1, 672 h, read-out: TGI. It is filed as functional.
Series [11] deals with PANC-1. Kind of series: Induction of apoptosis in human PANC-1 cells assessed as late apoptotic cells at 2 uM incubated for 48 hrs in presence of JQ1 by Annexin V-FITC/PI staining based flow cytometry (reference value: 3.87 %). It is filed as functional.
The nature of series [12]: Toxicity in BALB/c mouse xenografted with human PANC-1 cells assessed as body weight loss at 40 mg/kg, ip for 4 weeks administered for 5 days consecutively and 2 days without treatment on every week. Conditions: in vivo, 672 h. It is filed as organism-based.
Series [13] relates to PANC-1. Kind of series: Induction of apoptosis in human PANC-1 cells assessed as early apoptotic cells at 2.5 uM incubated for 48 hrs by Annexin V-FITC/PI staining based flow cytometry (reference value: 1.41 %). It is filed as functional.
Series [14] relates to PANC-1. Kind of series: Induction of cell cycle arrest in human PANC-1 cells assessed as accumulation at S phase at 2 uM incubated for 24 hrs in presence of JQ1 by PI staining based flow cytometry (reference value: 38.94 %). It is filed as functional.
Series [15] concerns PANC-1. Kind of series: Induction of cell cycle arrest in human PANC-1 cells assessed as accumulation at S phase at 5 uM incubated for 24 hrs by PI staining based flow cytometry (reference value: 38.94 %). It is filed as functional.
For series [16], the system named is PANC-1. Kind of series: Induction of apoptosis in human PANC-1 cells assessed as necrotic cells at 1.2 uM incubated for 48 hrs by Annexin V-FITC/PI staining based flow cytometry (reference value: 3.09 %). It is filed as functional.
For series [17], the system named is PANC-1. Kind of series: Induction of apoptosis in human PANC-1 cells assessed as late apoptotic cells at 1.2 uM incubated for 48 hrs by Annexin V-FITC/PI staining based flow cytometry (reference value: 3.87 %). It is filed as functional.
The subject of series [18] is PANC-1. Kind of series: Induction of cell cycle arrest in human PANC-1 cells assessed as accumulation at G1 phase at 5 uM incubated for 24 hrs by PI staining based flow cytometry (reference value: 51.70 %). It is filed as functional.
For series [19], the system named is PANC-1. Kind of series: Induction of apoptosis in human PANC-1 cells assessed as early apoptotic cells at 5 uM incubated for 48 hrs by Annexin V-FITC/PI staining based flow cytometry (reference value: 1.41 %). It is filed as functional.
In series [20] the test system is PANC-1. Kind of series: Induction of cell cycle arrest in human PANC-1 cells assessed as accumulation at G2 phase at 5 uM incubated for 24 hrs by PI staining based flow cytometry (reference value: 9.36 %). It is filed as functional.
Series [21] has as its system PANC-1. Kind of series: Induction of cell cycle arrest in human PANC-1 cells assessed as accumulation at G2 phase at 0.6 uM incubated for 24 hrs by PI staining based flow cytometry (reference value: 9.36 %). It is filed as functional.
Series [22] can be described thus: Toxicity in BALB/c mouse xenografted with human PANC-1 cells assessed as animal mortality at 40 mg/kg, ip for 4 weeks administered for 5 days consecutively and 2 days without treatment on every week in presence of JQ1. It is filed as organism-based. Conditions: in vivo, 672 h.
Series [23] relates to PANC-1. Kind of series: Induction of cell cycle arrest in human PANC-1 cells assessed as accumulation at G2/M phase at 2 uM incubated for 24 hrs in presence of JQ1 by PI staining based flow cytometry. It is filed as functional.
For series [24], the system named is PANC-1. Kind of series: Induction of DNA damage in human PANC-1 cells assessed as increase in gamma-H2AX level at 1 uM in presence of OL by Western blot analysis. It is filed as functional, cell-based.
For series [25], the system named is PANC-1. Kind of series: Induction of apoptosis in human PANC-1 cells assessed as necrotic cells at 1 uM incubated for 48 hrs in presence of OL by Annexin V-FITC/PI staining based flow cytometry (reference value: 3.09 %). It is filed as functional.
Series [26] can be described thus: Toxicity in BALB/c mouse xenografted with human PANC-1 cells assessed as pathological changes in lung at 20 mg/kg, ip for 4 weeks administered for 5 days consecutively and 2 days without treatment on every week in presence of OL by H and E staining based analysis. The following applies: in vivo, 672 h. It is filed as organism-based.
Series [27] relates to PANC-1. Kind of series: Induction of cell cycle arrest in human PANC-1 cells assessed as accumulation at G0/G1 phase at 1 uM incubated for 24 hrs in presence of OL by PI staining based flow cytometry relative to control. It is filed as functional.
Series [28] is described as follows: Toxicity in BALB/c mouse xenografted with human PANC-1 cells assessed as animal morbidity at 20 mg/kg, ip for 4 weeks administered for 5 days consecutively and 2 days without treatment on every week. It is filed as organism-based. The following applies: in vivo, 672 h.
In series [29] the test system is PANC-1. Kind of series: Induction of cell cycle arrest in human PANC-1 cells assessed as accumulation at G2 phase at 0.25 uM incubated for 24 hrs by PI staining based flow cytometry (reference value: 9.36 %). It is filed as functional.
Series [30] has as its system PANC-1. Kind of series: Induction of cell cycle arrest in human PANC-1 cells assessed as accumulation at G1 phase at 1 uM incubated for 24 hrs in presence of OL by PI staining based flow cytometry (reference value: 51.70 %). It is filed as functional.
Series [31] concerns PANC-1. Kind of series: Induction of apoptosis in human PANC-1 cells at 1 uM incubated for 48 hrs in presence of OL by Annexin V-FITC/PI staining based flow cytometry relative to control. It is filed as functional.

By DC50 is commonly meant the concentration at which degradation of the target reaches its halfway point. On to `O=C1CCC(N2C(=O)c3cccc(NC(=O)CNCCCCCCCCCCC(=O)N4CCN(C(=O)c5cc(Cc6n[nH]c(=O)c7ccccc67)ccc5F)CC4)c3C2=O)C(=O)N1` (stereo not drawn), for which the Activity with PANC-1 [1] was 42.94%; with PANC-1 [2], 45.34%; in series [4], “Non-toxic”; in the series with PANC-1 [5], 43.76%; in [6], “Non-toxic”; in series [7] (dose <= 10.0 µM), “Dose-dependent-effect”. In addition, the Activity is 8.77% in the series on PANC-1 [8]; 21.9% in the series on PANC-1 [11]; “Non-toxic” in [12]; 4.13% in the series with PANC-1 [13]; 26.81% with PANC-1 [14]; 42.71% in the series with PANC-1 [15]. The Activity with PANC-1 [16] is recorded as 2.74%; with PANC-1 [17], 3.71%; with PANC-1 [18], 43.66%; with PANC-1 [19] it was 4.76%; in the series on PANC-1 [20], 13.63%; in the series on PANC-1 [21], 10.52%. Further, the Activity entry in series [22] was “Non-toxic”. In series [3], the inhibition result was “Active”. The DC50 in series [7] came out at 2.55 nM. Further, the viability at 10 µM in the series on PANC-1 [9] amounted to 86.3%. Besides, the inhibition in vivo at 40 mg/kg in the series on PANC-1 [10] is at most 98.5%.

`O=C(c1cc(Cc2n[nH]c(=O)c3ccccc23)ccc1F)N1CCN(C(=O)C2CC2)CC1` [OLAPARIB]: the Activity in the series with PANC-1 [1] is recorded as 41%; in the series on PANC-1 [2] it was 46.78%; with PANC-1 [23], “Active; Only A Slight Increase Observed”; in series [4], “Non-toxic”; with PANC-1 [5] it was 44.32%; in series [6], “Non-toxic”. Besides, the Activity in the series with PANC-1 [8] is given as 5.44%; in the series on PANC-1 [11] it was 21.52%; in [12] it was “Non-toxic”; with PANC-1 [13] it was 2.76%; in the series with PANC-1 [14] it was 25.85%; in the series with PANC-1 [15] it was 43.96%. Moreover, the Activity stood at 4.05% in the series with PANC-1 [16]; 3.98% in the series on PANC-1 [17]; 40.8% in the series on PANC-1 [18]; 4.21% with PANC-1 [19]; 15.24% in the series with PANC-1 [20]; 10.68% with PANC-1 [21]. The Activity result in [22] is reported as “Non-toxic”. Further, the inhibition entry in [3] was “Active”. For the same compound, the viability at 10 µM with PANC-1 [9] turned out to be 87.3%. In the series on PANC-1 [10], the inhibition in vivo at 40 mg/kg stood at 80.7%.

Regarding `Cc1sc2c(c1C)C(c1ccc(Cl)cc1)=N[C@@H](CC(=O)OC(C)(C)C)c1nnc(C)n1-2`, the result in the series on PANC-1 [24] was Active. Moreover, the Activity is listed as 4.77% in the series on PANC-1 [25]; “Non-toxic” in [26]; 12.43% in the series on PANC-1 [27]; “Non-toxic” in series [28]; 12.15% with PANC-1 [29]; 58.42% in the series with PANC-1 [30]. Further, in the series on PANC-1 [31], the Activity was found to be 26.9%.
